Reference: patent US20230339900A1, “CASEIN KINASE 1 DELTA MODULATORS” (Janssen Pharmaceutica NV, priority 2020, published 2023)

Legend:
[1] = target: human CSNK1D tagged with nanoluciferase (Homo sapiens (Human), UniProt P48730); test: Whole Cell nBRET CSNK1D Binding Assay; conditions: living CHO cells stably expressing human CSNK1D-nanoluciferase; NanoBret tracer 130 nM; 2 hours 37° C.; read-out: CSNK1D BRET IC50
Procedure, shortened: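 Live CHO cells stably expressing nanoluciferase-tagged CSNK1D, seeded in serum-free OptiMEM, received compound dose-response plus NanoBRET tracer (130 nM) for 2 h at 37 °C.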

[2] = target: human recombinant GST cleaved CSNK1D (Homo sapiens (Human), UniProt P48730); test: Purified enzyme assay (ADP-Glo Kinase Assay); assay type: biochemical; conditions: 2 nM CSNK1D, peptide substrate 150 μM, ATP 20 μM, 45 minutes room temperature
human recombinant GST cleaved CSNK1D, sequence (P48730 whole entry): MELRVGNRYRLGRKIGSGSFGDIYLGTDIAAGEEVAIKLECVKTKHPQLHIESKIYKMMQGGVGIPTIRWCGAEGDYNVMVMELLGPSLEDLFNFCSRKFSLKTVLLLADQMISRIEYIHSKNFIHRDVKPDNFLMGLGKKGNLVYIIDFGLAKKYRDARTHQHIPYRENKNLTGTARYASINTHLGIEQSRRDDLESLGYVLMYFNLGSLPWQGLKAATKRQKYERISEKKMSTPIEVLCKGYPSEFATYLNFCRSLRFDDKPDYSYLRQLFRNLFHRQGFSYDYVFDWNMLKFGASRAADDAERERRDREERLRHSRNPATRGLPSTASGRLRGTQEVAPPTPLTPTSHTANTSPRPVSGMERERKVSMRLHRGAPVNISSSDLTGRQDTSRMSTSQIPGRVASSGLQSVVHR

human CSNK1D tagged with nanoluciferase, sequence (P48730 whole entry): as above

Row | SMILES | IC50 [1] [nM] | AC50 [2] [nM]
1 | Cn1cc(-c2c(C#N)cnc3[nH]ccc23)c(-c2ccc(F)cn2)n1 [Example 89, 4-[3-(5-Fluoro-2-pyridyl)-1-methyl-pyrazol-4-yl]-1H-pyrrolo[2,3-b]pyridine-5-carbonitrile] | 71 | 3
2 | Cn1cc(-c2c(CC#N)cnc3[nH]ccc23)c(-c2ccc(F)cn2)n1 [Example 90, 2-[4-[3-(5-Fluoro-2-pyridyl)-1-methyl-pyrazol-4-yl]-1H-pyrrolo[2,3-b]pyridin-5-yl]acetonitrile] | 7160 | 75
3 | Cn1cc(-c2c(C3COC3)cnc3[nH]ccc23)c(-c2ccc(F)cn2)n1 [Example 91, 4-(3-(5-Fluoropyridin-2-yl)-1-methyl-1H-pyrazol-4-yl)-5-(oxetan-3-yl)-1H-pyrrolo[2,3-b]pyridine] | 653 | 19
4 | Cn1cc(-c2ccnc3[nH]cc(C4COC4)c23)c(-c2ccc(F)cn2)n1 [Example 93, 4-[3-(5-Fluoro-2-pyridyl)-1-methyl-pyrazol-4-yl]-3-(oxetan-3-yl)-1H-pyrrolo[2,3-b]pyridine] | 3660 | 123
5 | Cn1cc(-c2ccnc3[nH]c(C4(O)COC4)cc23)c(-c2ccc(F)cn2)n1 [Example 94, 3-(4-(3-(5-Fluoropyridin-2-yl)-1-methyl-1H-pyrazol-4-yl)-1H-pyrrolo[2,3-b]pyridin-2-yl)oxetan-3-ol] | 187 | 10
6 | Cn1cc(-c2c(CC3COC3)cnc3[nH]ccc23)c(-c2ccc(F)cn2)n1 [Example 95, 4-(3-(5-Fluoropyridin-2-yl)-1-methyl-1H-pyrazol-4-yl)-5-(oxetan-3-ylmethyl)-1H-pyrrolo[2,3-b]pyridine] | 376 | 2
7 | Cn1cc(-c2ccnc3[nH]ncc23)c(-c2ccc(F)cn2)n1 [Example 98, 4-(3-(5-Fluoropyridin-2-yl)-1-methyl-1H-pyrazol-4-yl)-1H-pyrazolo[3,4-b]pyridine] | 2350 | 76
8 | Cc1cc(-c2cn(C)nc2-c2ccc(F)cn2)c2cn[nH]c2n1 [Example 99, 4-(3-(5-Fluoropyridin-2-yl)-1-methyl-1H-pyrazol-4-yl)-6-methyl-1H-pyrazolo[3,4-b]pyridine] | 238 | 11
9 | Cc1cc(-c2cn(C)nc2-c2ccc(F)cn2)c2c(C)n[nH]c2n1 [Example 100, 4-[3-(5-Fluoro-2-pyridyl)-1-methyl-pyrazol-4-yl]-3,6-dimethyl-1H-pyrazolo[3,4-b]pyridine] | 197 | 12
10 | Cn1cc(-c2cc(C3CC3)nc3[nH]ncc23)c(-c2ccc(F)cn2)n1 [Example 101, 6-Cyclopropyl-4-(3-(5-fluoropyridin-2-yl)-1-methyl-1H-pyrazol-4-yl)-1H-pyrazolo[3,4-b]pyridine] | 829 | 34
11 | Cn1cc(-c2ncnc3[nH]ccc23)c(-c2ccc(F)cn2)n1 [Example 102, 4-(3-(5-Fluoropyridin-2-yl)-1-methyl-1H-pyrazol-4-yl)-7H-pyrrolo[2,3-d]pyrimidine] | 1280 | 48
12 | COc1ccc2nccc(-c3cn(C)nc3-c3ccc(F)cn3)c2n1 [Example 103, 8-[3-(5-Fluoro-2-pyridyl)-1-methyl-pyrazol-4-yl]-2-methoxy-1,5-naphthyridine] | 147 | 10
13 | Cn1cc(-c2ccnc3ccccc23)c(-c2ccc(F)cn2)n1 [Example 104, 4-[3-(5-Fluoro-2-pyridyl)-1-methyl-pyrazol-4-yl]quinoline] | 1320 | 170
14 | Cn1cc(-c2ccnc3cc(Cl)ccc23)c(-c2ccc(F)cn2)n1 [Example 105, 7-Chloro-4-[3-(5-fluoro-2-pyridyl)-1-methyl-pyrazol-4-yl]quinoline] | 817 | 25
15 | Cn1cc(-c2ccnc3cc(F)ccc23)c(-c2ccc(F)cn2)n1 [Example 106, 7-Fluoro-4-[3-(5-fluoro-2-pyridyl)-1-methyl-pyrazol-4-yl]quinoline] | 564 | 39
16 | Cn1cc(-c2ccnc3cc(C(F)(F)F)ccc23)c(-c2ccc(F)cn2)n1 [Example 107, 4-[3-(5-Fluoro-2-pyridyl)-1-methyl-pyrazol-4-yl]-7-(trifluoromethyl)quinoline] | 264 | 31
17 | COc1ccc2c(-c3cn(C)nc3-c3ccc(F)cn3)ccnc2c1 [Example 108, 4-[3-(5-Fluoro-2-pyridyl)-1-methyl-pyrazol-4-yl]-7-methoxy-quinoline] | 373 | 13
18 | Cn1cc(-c2ccnc3cc(OC(F)(F)F)ccc23)c(-c2ccc(F)cn2)n1 [Example 109, 4-[3-(5-Fluoro-2-pyridyl)-1-methyl-pyrazol-4-yl]-7-(trifluoromethoxy)quinoline] | 468 | 41
19 | COc1ccc2c(-c3cn(C)nc3-c3ccc(F)cn3)cc(C)nc2c1 [Example 110, 4-[3-(5-Fluoro-2-pyridyl)-1-methyl-pyrazol-4-yl]-7-methoxy-2-methyl-quinoline] | > 10000 | 5360
20 | COc1cc2c(-c3cn(C)nc3-c3ccc(F)cn3)ccnc2cc1F [Example 111, 7-Fluoro-4-[3-(5-fluoro-2-pyridyl)-1-methyl-pyrazol-4-yl]-6-methoxy-quinoline] | 491 | 28
21 | Cn1cc(-c2ccnc3cnccc23)c(-c2ccc(F)cn2)n1 [Example 112, 4-[3-(5-Fluoro-2-pyridyl)-1-methyl-pyrazol-4-yl]-1,7-naphthyridine] | 953 | 51
22 | Cn1cc(-c2ccnc3c2CCNC3)c(-c2ccc(F)cn2)n1 [Example 113, 4-[3-(5-Fluoro-2-pyridyl)-1-methyl-pyrazol-4-yl]-5,6,7,8-tetrahydro-1,7-naphthyridine] | > 10000 | 144
23 | Cn1cc(-c2ccnc3c2CCCN3)c(-c2ccc(F)cn2)n1 [Example 114, 5-[3-(5-Fluoro-2-pyridyl)-1-methyl-pyrazol-4-yl]-1,2,3,4-tetrahydro-1,8-naphthyridine] | 4230 | 166
24 | CC(=O)Nc1cc(-c2cn(C)nc2-c2ccc(F)cn2)ccn1 [Example 115, N-(4-(3-(5-Fluoropyridin-2-yl)-1-methyl-1H-pyrazol-4-yl)pyridin-2-yl)acetamide] | 315 | 9
25 | Cn1cc(-c2ccnc(NC(=O)C3CC3)c2)c(-c2ccc(F)cn2)n1 [Example 116, N-(4-(3-(5-Fluoropyridin-2-yl)-1-methyl-1H-pyrazol-4-yl)pyridin-2-yl)cyclopropanecarboxamide] | 76 | 3
26 | Cn1cc(-c2ccnc3c2CNC3)c(-c2ccc(F)cn2)n1 [Example 117, 4-(3-(5-Fluoropyridin-2-yl)-1-methyl-1H-pyrazol-4-yl)-6,7-dihydro-5H-pyrrolo[3,4-b]pyridine] | > 10000 | 101
27 | Cn1cc(-c2ccnc3ccsc23)c(-c2ccc(F)cn2)n1 [Example 118, 7-(3-(5-Fluoropyridin-2-yl)-1-methyl-1H-pyrazol-4-yl)thieno[3,2-b]pyridine] | 376 | 24
28 | Cn1cc(-c2cc(N)nc3[nH]ccc23)c(-c2ccc(F)cn2)n1 [Example 119, 4-[3-(5-Fluoro-2-pyridyl)-1-methyl-pyrazol-4-yl]-1H-pyrrolo[2,3-b]pyridin-6-amine] | 32 | 2
